Results: paper PMC7351026, “Serum Half-Lives for Short- and Long-Chain Perfluoroalkyl Acids after Ceasing Exposure from Drinking Water Contaminated by Firefighting Foam” (Environmental Health Perspectives, 2020)

Assays:
[1] = PFAS levels in serum samples of airport employees (LC/MS/MS); details: for Serum level, median (range): second to fifth samplings, 17 airport employees
Outline: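 LC/MS/MS quantification (BEH C18, 5 mM ammonium acetate water:methanol to methanol gradient) after protein precipitation of 25 μL serum with isotopically labeled internal standards, FBS-matrix calibration. Samples stored at −80°C, collected at monthly intervals from September 2018 and run together in a single batch.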

[2] = Individual serum elimination rate and half-life (linear regression per employee); details: individual estimate;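 on HL (half-life): half-life in years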
Outline: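 One-compartment, first-order model: for each employee and PFAS, the slope β of log serum concentration versus elapsed days (from clean water supply, over five samplings) gave k = −β and half-life = ln2/k. A positive slope left the half-life undetermined.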

[3] = 1st sampling (September 2018), count 17
[4] = 2nd sampling (October 2018), count 17
[5] = 3rd sampling (November, 2018), count 17
[6] = 4th sampling (December 2018), count 16
[7] = 5th sampling (January 2019), count 16
[8] = employees participated in first blood sampling and repeated blood and urine sampling, N=17
[9] = employees participated in first blood sampling only, N=9, 11-14 d after end of exposure
[10] = first serum samples, all 26 airport employees
[11] = median of first serum samples, all 26 airport employees

O=S(=O)(O)C(F)(F)C(F)(F)C(F)(F)C(F)(F)C(F)(F)F [PFPeS, perfluoropentane sulfonic acid]
Serum PFAS level, 25 percentile [1, 3]: 5.8
Serum PFAS level, 75 percentile [1, 3]: 13
Serum PFAS level, Max [1, 3]: 17
Serum PFAS level, Median [1, 3]: 7.6
Serum PFAS level, Min [1, 3]: 3.6
Serum PFAS level, 25 percentile [1, 4]: 4.9
Serum PFAS level, 75 percentile [1, 4]: 11
Serum PFAS level, Max [1, 4]: 14
Serum PFAS level, Median [1, 4]: 6.8
Serum PFAS level, Min [1, 4]: 2.3
Serum PFAS level, 25 percentile [1, 5]: 4.4
Serum PFAS level, 75 percentile [1, 5]: 11
Serum PFAS level, Max [1, 5]: 14
Serum PFAS level, Median [1, 5]: 6.3
Serum PFAS level, Min [1, 5]: 2.1
Serum PFAS level, 25 percentile [1, 6]: 4.0
Serum PFAS level, 75 percentile [1, 6]: 11
Serum PFAS level, Max [1, 6]: 14
Serum PFAS level, Median [1, 6]: 6.5
Serum PFAS level, Min [1, 6]: 1.8
Serum PFAS level, 25 percentile [1, 7]: 4.4
Serum PFAS level, 75 percentile [1, 7]: 9.9
Serum PFAS level, Max [1, 7]: 13
Serum PFAS level, Median [1, 7]: 6.2
Serum PFAS level, Min [1, 7]: 1.9
Serum level in the first samples, median (range) ([1]; all 26 airport employees): 6.9 (1.4–17) ng/mL
PFAS in first serum sample, median (range) [1, 8]: 7.6 (3.6–17) ng/mL
PFAS in first serum sample, median (range) [1, 9]: 3.5 (1.4–11) ng/mL
Serum level, median ([1]; exposed employees 5 months after exposure ceased): 6.22 ng/mL
Initial serum PFAS level, max ([1]; females (N=7)): 15 ng/mL
Initial serum PFAS level, median ([1]; females (N=7)): 5.1 ng/mL
Initial serum PFAS level, min ([1]; females (N=7)): 3.5 ng/mL
Relative composition of PFAS in serum, molar concentration basis [1, 10]: 7.3%
Relative composition of PFAS in serum, weight basis [1, 10]: 6.3%
Initial serum PFAS level, Max ([1]; males (N=19)): 17 ng/mL
Initial serum PFAS level, Min ([1]; males (N=19)): 1.4 ng/mL
Initial serum PFAS level, median ([1]; males (N=19)): 7.2 ng/mL
Serum concentration, molar basis [1, 11]: 0.020
Serum concentration, weight basis [1, 11]: 6.9
Serum level, median (range) [1]: 6.5 (1.8–14) ng/mL
Elimination rate ([2]; subject 1, 5 samples): 0.7 yearly
HL (half-life) ([2]; subject 1, 5 samples): 1.0 year
Elimination rate ([2]; subject 2, 5 samples): 0.6 yearly
HL (half-life) ([2]; subject 2, 5 samples): 1.2 year
Elimination rate ([2]; subject 3, 5 samples): 0.7 yearly
HL (half-life) ([2]; subject 3, 5 samples): 0.9 year
Elimination rate ([2]; subject 4, 5 samples): 0.8 yearly
HL (half-life) ([2]; subject 4, 5 samples): 0.8 year
Elimination rate ([2]; subject 5, 5 samples): 0.4 yearly
HL (half-life) ([2]; subject 5, 5 samples): 1.7 year
Elimination rate ([2]; subject 6, 4 samples): 0.9 yearly
HL (half-life) ([2]; subject 6, 4 samples): 0.7 year
Elimination rate ([2]; subject 7, 5 samples): 0.7 yearly
HL (half-life) ([2]; subject 7, 5 samples): 0.9 year
Elimination rate ([2]; subject 8, 5 samples): 0.5 yearly
HL (half-life) ([2]; subject 8, 5 samples): 1.4 year
Elimination rate ([2]; subject 9, 5 samples): 0.7 yearly
HL (half-life) ([2]; subject 9, 5 samples): 1.0 year
Elimination rate ([2]; subject 10, 5 samples): 0.6 yearly
HL (half-life) ([2]; subject 10, 5 samples): 1.2 year
Elimination rate ([2]; subject 11, 5 samples): 2.0 yearly
HL (half-life) ([2]; subject 11, 5 samples): 0.3 year
Elimination rate ([2]; subject 12, 5 samples): 1.1 yearly
HL (half-life) ([2]; subject 12, 5 samples): 0.6 year
Elimination rate ([2]; subject 13, 5 samples): 0.8 yearly
HL (half-life) ([2]; subject 13, 5 samples): 0.9 year
Elimination rate ([2]; subject 14, 4 samples): 1.2 yearly
HL (half-life) ([2]; subject 14, 4 samples): 0.6 year
Elimination rate ([2]; subject 15, 5 samples): 2.5 yearly
HL (half-life) ([2]; subject 15, 5 samples): 0.3 year
Elimination rate ([2]; subject 16, 5 samples): 0.4 yearly
HL (half-life) ([2]; subject 16, 5 samples): 1.6 year
Elimination rate ([2]; subject 17, 5 samples): 2.4 yearly
HL (half-life) ([2]; subject 17, 5 samples): 0.3 year

Perfluoro-2/6-methylheptanesulfonate [2/6m-PFOS]
Serum PFAS level, 25 percentile [1, 3]: 1.4
Serum PFAS level, 75 percentile [1, 3]: 3.6
Serum PFAS level, Max [1, 3]: 7.5
Serum PFAS level, Median [1, 3]: 2.6
Serum PFAS level, Min [1, 3]: 1.0
Serum PFAS level, 25 percentile [1, 4]: 1.5
Serum PFAS level, 75 percentile [1, 4]: 2.8
Serum PFAS level, Max [1, 4]: 7.2
Serum PFAS level, Median [1, 4]: 2.2
Serum PFAS level, Min [1, 4]: 0.97
Serum PFAS level, 25 percentile [1, 5]: 1.3
Serum PFAS level, 75 percentile [1, 5]: 3.5
Serum PFAS level, Max [1, 5]: 8.1
Serum PFAS level, Median [1, 5]: 2.3
Serum PFAS level, Min [1, 5]: 0.66
Serum PFAS level, 25 percentile [1, 6]: 0.96
Serum PFAS level, 75 percentile [1, 6]: 2.9
Serum PFAS level, Max [1, 6]: 7.1
Serum PFAS level, Median [1, 6]: 1.9
Serum PFAS level, Min [1, 6]: 0.57
Serum PFAS level, 25 percentile [1, 7]: 1.2
Serum PFAS level, 75 percentile [1, 7]: 2.7
Serum PFAS level, Max [1, 7]: 7.0
Serum PFAS level, Median [1, 7]: 2.1
Serum PFAS level, Min [1, 7]: 0.83
PFAS in first serum sample, median (range) [1, 8]: 2.6 (1.0–7.5) ng/mL
PFAS in first serum sample, median (range) [1, 9]: 1.8 (0.84–3.2) ng/mL
Initial serum PFAS level, max ([1]; females (N=7)): 2.8 ng/mL
Initial serum PFAS level, median ([1]; females (N=7)): 1.4 ng/mL
Initial serum PFAS level, min ([1]; females (N=7)): 1.0 ng/mL
Initial serum PFAS level, Max ([1]; males (N=19)): 7.5 ng/mL
Initial serum PFAS level, Min ([1]; males (N=19)): 0.84 ng/mL
Initial serum PFAS level, median ([1]; males (N=19)): 2.5 ng/mL
Serum level, median (range) [1]: 2.1 (0.57–8.1) ng/mL
Elimination rate ([2]; subject 1, 5 samples): −0.2 yearly
Elimination rate ([2]; subject 2, 5 samples): 0.5 yearly
HL (half-life) ([2]; subject 2, 5 samples): 1.3 year
Elimination rate ([2]; subject 3, 5 samples): 0.7 yearly
HL (half-life) ([2]; subject 3, 5 samples): 1.0 year
Elimination rate ([2]; subject 4, 5 samples): 0.0 yearly
Elimination rate ([2]; subject 5, 5 samples): 0.4 yearly
HL (half-life) ([2]; subject 5, 5 samples): 1.6 year
Elimination rate ([2]; subject 6, 4 samples): 0.4 yearly
HL (half-life) ([2]; subject 6, 4 samples): 1.7 year
Elimination rate ([2]; subject 7, 5 samples): 1.1 yearly
HL (half-life) ([2]; subject 7, 5 samples): 0.6 year
Elimination rate ([2]; subject 8, 5 samples): −0.2 yearly
Elimination rate ([2]; subject 9, 5 samples): 0.2 yearly
HL (half-life) ([2]; subject 9, 5 samples): 4.2 year
Elimination rate ([2]; subject 10, 5 samples): −0.007 yearly
Elimination rate ([2]; subject 11, 5 samples): 1.7 yearly
HL (half-life) ([2]; subject 11, 5 samples): 0.4 year
Elimination rate ([2]; subject 12, 5 samples): 1.7 yearly
HL (half-life) ([2]; subject 12, 5 samples): 0.4 year
Elimination rate ([2]; subject 13, 5 samples): 1.0 yearly
HL (half-life) ([2]; subject 13, 5 samples): 0.7 year
Elimination rate ([2]; subject 14, 4 samples): 1.5 yearly
HL (half-life) ([2]; subject 14, 4 samples): 0.5 year
Elimination rate ([2]; subject 15, 5 samples): 1.2 yearly
HL (half-life) ([2]; subject 15, 5 samples): 0.6 year
Elimination rate ([2]; subject 16, 5 samples): −0.1 yearly
Elimination rate ([2]; subject 17, 5 samples): 1.9 yearly
HL (half-life) ([2]; subject 17, 5 samples): 0.4 year

perfluoro-3/4/5-methylheptanesulfonate [3/4/5m-PFOS]
Serum PFAS level, 25 percentile [1, 3]: 2.7
Serum PFAS level, 75 percentile [1, 3]: 6.3
Serum PFAS level, Max [1, 3]: 17
Serum PFAS level, Median [1, 3]: 4.9
Serum PFAS level, Min [1, 3]: 1.7
Serum PFAS level, 25 percentile [1, 4]: 2.4
Serum PFAS level, 75 percentile [1, 4]: 4.8
Serum PFAS level, Max [1, 4]: 15
Serum PFAS level, Median [1, 4]: 4.1
Serum PFAS level, Min [1, 4]: 1.3
Serum PFAS level, 25 percentile [1, 5]: 2.5
Serum PFAS level, 75 percentile [1, 5]: 5.1
Serum PFAS level, Max [1, 5]: 16
Serum PFAS level, Median [1, 5]: 4.2
Serum PFAS level, Min [1, 5]: 1.0
Serum PFAS level, 25 percentile [1, 6]: 2.1
Serum PFAS level, 75 percentile [1, 6]: 4.9
Serum PFAS level, Max [1, 6]: 16
Serum PFAS level, Median [1, 6]: 3.6
Serum PFAS level, Min [1, 6]: 1.0
Serum PFAS level, 25 percentile [1, 7]: 2.7
Serum PFAS level, 75 percentile [1, 7]: 4.9
Serum PFAS level, Max [1, 7]: 16
Serum PFAS level, Median [1, 7]: 4.0
Serum PFAS level, Min [1, 7]: 1.0
PFAS in first serum sample, median (range) [1, 8]: 4.9 (1.7–17) ng/mL
PFAS in first serum sample, median (range) [1, 9]: 2.9 (1.2–6.7) ng/mL
Initial serum PFAS level, max ([1]; females (N=7)): 5.4 ng/mL
Initial serum PFAS level, median ([1]; females (N=7)): 2.9 ng/mL
Initial serum PFAS level, min ([1]; females (N=7)): 1.7 ng/mL
Initial serum PFAS level, Max ([1]; males (N=19)): 17 ng/mL
Initial serum PFAS level, Min ([1]; males (N=19)): 1.2 ng/mL
Initial serum PFAS level, median ([1]; males (N=19)): 4.9 ng/mL
Elimination rate ([2]; subject 1, 5 samples): 0.4 yearly
HL (half-life) ([2]; subject 1, 5 samples): 1.9 year
Elimination rate ([2]; subject 2, 5 samples): 0.3 yearly
HL (half-life) ([2]; subject 2, 5 samples): 2.1 year
Elimination rate ([2]; subject 3, 5 samples): 0.4 yearly
HL (half-life) ([2]; subject 3, 5 samples): 1.7 year
Elimination rate ([2]; subject 4, 5 samples): 0.1 yearly
HL (half-life) ([2]; subject 4, 5 samples): 11 year
Elimination rate ([2]; subject 5, 5 samples): 0.2 yearly
HL (half-life) ([2]; subject 5, 5 samples): 3.1 year
Elimination rate ([2]; subject 6, 4 samples): 0.04 yearly
HL (half-life) ([2]; subject 6, 4 samples): 19 year
Elimination rate ([2]; subject 7, 5 samples): 0.1 yearly
HL (half-life) ([2]; subject 7, 5 samples): 4.8 year
Elimination rate ([2]; subject 8, 5 samples): −0.2 yearly
Elimination rate ([2]; subject 9, 5 samples): 0.1 yearly
HL (half-life) ([2]; subject 9, 5 samples): 10 year
Elimination rate ([2]; subject 10, 5 samples): 0.2 yearly
HL (half-life) ([2]; subject 10, 5 samples): 4.0 year
Elimination rate ([2]; subject 11, 5 samples): 2.0 yearly
HL (half-life) ([2]; subject 11, 5 samples): 0.4 year
Elimination rate ([2]; subject 12, 5 samples): 0.5 yearly
HL (half-life) ([2]; subject 12, 5 samples): 1.3 year
Elimination rate ([2]; subject 13, 5 samples): 0.5 yearly
HL (half-life) ([2]; subject 13, 5 samples): 1.5 year
Elimination rate ([2]; subject 14, 4 samples): 0.3 yearly
HL (half-life) ([2]; subject 14, 4 samples): 2.0 year
Elimination rate ([2]; subject 15, 5 samples): 2.2 yearly
HL (half-life) ([2]; subject 15, 5 samples): 0.3 year
Elimination rate ([2]; subject 16, 5 samples): 0.3 yearly
HL (half-life) ([2]; subject 16, 5 samples): 2.0 year
Elimination rate ([2]; subject 17, 5 samples): 1.9 yearly
HL (half-life) ([2]; subject 17, 5 samples): 0.4 year
